Data reported in US20200323772A1, “TREATMENT OF INFLAMMATORY DISEASE USING INGESTIBLE DEVICE TO RELEASE IMMUNE MODULATOR” (Progenity, Inc., priority 2017, published 2020).

Assays:
[1] = Tissue, plasma, rectal and GI content pharmacokinetics of tacrolimus, oral vs intra-cecal ingestible device (Example 10); parameters: species or system Yorkshire-Cross farm swine; conditions: in vivo
Procedure: The primary objective of this study was to compare the tissue, plasma, rectal sample, and GI content pharmacokinetics of tacrolimus through oral versus intra-cecal ingestible device delivery in normal Yorkshire-Cross farm swine.
(§1) No further randomization procedure was employed.
Animals in Group 1 received an ingestible device containing 0.8 mL of vehicle solution (80% alcohol, 20% HCO-60). Animals in Group 2 received orally […] liquid formulation of tacrolimus at 4 mg/0.8 mL per animal (Prograf: 5 mg/mL). Animals in Group 3 received intra-cecally an ingestible device containing tacrolimus at 1 mg in 0.8 mL per ingestible device. Animals in Group 4 received intra-cecally an ingestible device containing tacrolimus at 2 mg in 0.8 mL per ingestible device. Animals in Group 5 received intra-cecally an ingestible device containing tacrolimus at 4 mg in 0.8 mL per ingestible device. To control for potential confounding effects of the surgery, all groups fast on Day −11 at least 24 hr before being subjected to anesthesia followed by surgical placements of a cecal port by a veterinary surgeon at Day −10. All animals were fasted for at least 12 hr prior to dosing on Day 1. Animals were dosed via either intra-cecal dosing (IC) or oral dosing (PO) at Day 1 (between 6-8 p.m.). All animals resumed feeding at approximately 4 hours after dose ([…]. after dosing).
Animals in Group 1 (Vehicle Control) were administered a single intra-cecal ingestible device containing 0.8 mL Vehicle solution (80% alcohol, 20% castor oil (HCO-60) on Day 1. On Day −10 the animals were anesthetized, and a veterinary surgeon surgically placed an intra-cecal port in each animal. On Day 1, each animal was placed into a sling then a single intra-cecal ingestible device containing 0.8 mL vehicle solution (80% alcohol, 20% castor oil (HCO-60)) is introduced by the veterinary surgeon into the cecum via the cecal port in each animal. Following ingestible device placement, the animals were removed from the slings and placed back into their pens with water. All animals resumed feeding at approximately 4 hours after dose. […] A total of 60 samples were collected.
Approximately 200˜400 mg of rectal content were collected, if available, with a fecal swab (Copan Diagnostics Nylon Flocked Dry Swabs, 502CS01). The fecal swab was pre-weighed and weighed after collection in the collection tube (Sterile Tube and Cap No Media, PFPM913S), and the sample weight was recorded. The fecal swab was broken via the breakpoint, and was stored in the collection tube, and immediately frozen at −70° C. […] Immediately following euthanasia, tissue was collected.
For tissue necropsy, small intestine fluid and cecal fluid were collected separately from all the animals into two separate square plastic bottles, and stored at −20° C. The length and diameter of the cecum and the colon was measured from one animal in each group and recorded for reference. Tissues were collected for pharmacokinetic analyses and include mesenteric lymph nodes, a Peyer's Patch, and five gastrointestinal sections, including cecum, proximal colon, transverse colon, distal colon, and rectum. All samples were weighed, and the tissue sample weights were recorded. […] Around 3 grams of the total punched sample were collected into a pre-weighed 15-mL conical tube, and the tissue weight was recorded. […]

[2] = Pharmacokinetic study of oral vs intra-cecal tacrolimus: blood, GI tissue, luminal and rectal content concentrations (Example 13); parameters: species or system Yorkshire-Cross farm swine; conditions: in vivo, 0.09 mg/kg
Excerpt: as §1

[3] = female, Yorkshire-Cross, pig, po
[4] = female, Yorkshire-Cross, pig, po, 12 h

- luminal content (spiral, transverse, and distal colon) concentrations [1]: Significantly higher
- mean concentration in the cecum tissue and the proximate colon tissue [1]: higher
- tissue (spiral and transverse colon) concentrations [1]: Significantly higher
- level in tissue ([1]; po): No measurable level
- Kp at 12 h [2, 3]: 0
- Tissue (mean) (ng/g)/AUG(0-12 hr)(ng·hr/ml) Ratio [2, 4]: 0
- Tissue (mean) (ng/g)/Trough(12 hr)(ng/ml) Ratio [2, 4]: 0
- Trough (12 hr) [2, 4]: 0.568 ng/mL
- concentration at 12 h ([2]; female, Yorkshire-Cross, pig, po, Trough (12 hr)): 0.568 ng/mL
- AUC0-12 hours in the blood [2]: higher
- mean concentration in the blood [2]: higher
Compound: C=CC[C@@H]1/C=C(\C)C[C@H](C)C[C@H](OC)[C@H]2O[C@@](O)(C(=O)C(=O)N3CCCC[C@H]3C(=O)O[C@H](/C(C)=C/[C@@H]3CC[C@@H](O)[C@H](OC)C3)[C@H](C)[C@@H](O)CC1=O)[C@H](C)C[C@@H]2OC [tacrolimus]
- systemic concentrations [1, 3]: equivalent to low dose IC group (0.02 mg/kg)
